{"source": "ChEMBL document CHEMBL1159145", "about": "(Bioorg Med Chem Lett, 1992)", "key": {"Substance-P receptor [1]": {"target": "Substance-P receptor (Cavia porcellus, UniProt P30547)", "sequence (P30547 whole entry)": "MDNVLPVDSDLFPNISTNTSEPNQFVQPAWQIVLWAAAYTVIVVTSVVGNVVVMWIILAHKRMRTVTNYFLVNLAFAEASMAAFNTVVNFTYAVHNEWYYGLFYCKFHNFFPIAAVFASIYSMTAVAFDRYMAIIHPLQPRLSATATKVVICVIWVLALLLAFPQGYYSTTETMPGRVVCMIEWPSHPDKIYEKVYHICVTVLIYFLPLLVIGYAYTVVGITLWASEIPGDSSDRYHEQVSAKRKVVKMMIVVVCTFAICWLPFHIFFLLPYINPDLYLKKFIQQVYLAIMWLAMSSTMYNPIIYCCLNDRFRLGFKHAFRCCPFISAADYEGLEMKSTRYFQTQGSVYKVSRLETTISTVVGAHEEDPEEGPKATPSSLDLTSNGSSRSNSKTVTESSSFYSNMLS", "test": "Binding affinity towards Tachykinin receptor 1 binding in guinea pig cerebral cortex membranes was determined using [3H]SP as the radioligand", "type": "tissue-based, Membrane"}, "Substance-P receptor [2]": {"target": "T1, Substance-P receptor (Rattus norvegicus, UniProt P14600)", "T1 sequence (P14600 whole entry)": "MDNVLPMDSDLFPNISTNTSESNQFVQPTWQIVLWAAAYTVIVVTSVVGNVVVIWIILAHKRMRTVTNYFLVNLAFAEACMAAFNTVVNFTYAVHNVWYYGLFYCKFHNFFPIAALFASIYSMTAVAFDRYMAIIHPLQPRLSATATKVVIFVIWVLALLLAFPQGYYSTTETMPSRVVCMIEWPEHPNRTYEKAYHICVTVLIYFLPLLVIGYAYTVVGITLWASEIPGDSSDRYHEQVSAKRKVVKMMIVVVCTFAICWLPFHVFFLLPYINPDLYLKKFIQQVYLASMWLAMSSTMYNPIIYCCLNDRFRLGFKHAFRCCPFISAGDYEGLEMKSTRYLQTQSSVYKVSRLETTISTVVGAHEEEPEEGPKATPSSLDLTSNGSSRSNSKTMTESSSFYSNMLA", "test": "Binding affinity towards Tachykinin receptor 1 in rat cerebral cortex membranes was determined by using 125 [I]-BHSP as radioligand", "type": "cell membranes, Membrane"}, "Substance-K receptor": {"target": "T2, Substance-K receptor (Mesocricetus auratus, UniProt P51144)", "T2 sequence (P51144 whole entry)": "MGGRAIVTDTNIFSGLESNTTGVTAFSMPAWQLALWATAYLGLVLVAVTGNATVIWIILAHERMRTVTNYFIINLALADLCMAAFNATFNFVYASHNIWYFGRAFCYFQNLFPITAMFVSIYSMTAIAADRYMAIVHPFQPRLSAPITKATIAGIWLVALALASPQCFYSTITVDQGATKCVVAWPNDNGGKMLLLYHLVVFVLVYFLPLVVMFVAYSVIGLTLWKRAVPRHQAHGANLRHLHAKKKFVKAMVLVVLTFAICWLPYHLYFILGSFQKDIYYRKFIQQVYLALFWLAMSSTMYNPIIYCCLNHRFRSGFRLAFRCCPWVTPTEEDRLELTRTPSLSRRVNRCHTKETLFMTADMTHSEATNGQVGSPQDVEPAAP", "test": "Ability to displace the binding of [125I]iodohistidyl-NKA to Tachykinin receptor 2 in hamster urinary bladder membranes was determined.", "type": "cell membranes, Membrane"}, "Neuromedin-K receptor": {"target": "T3, Neuromedin-K receptor (Rattus norvegicus, UniProt P16177)", "T3 sequence (P16177 whole entry)": "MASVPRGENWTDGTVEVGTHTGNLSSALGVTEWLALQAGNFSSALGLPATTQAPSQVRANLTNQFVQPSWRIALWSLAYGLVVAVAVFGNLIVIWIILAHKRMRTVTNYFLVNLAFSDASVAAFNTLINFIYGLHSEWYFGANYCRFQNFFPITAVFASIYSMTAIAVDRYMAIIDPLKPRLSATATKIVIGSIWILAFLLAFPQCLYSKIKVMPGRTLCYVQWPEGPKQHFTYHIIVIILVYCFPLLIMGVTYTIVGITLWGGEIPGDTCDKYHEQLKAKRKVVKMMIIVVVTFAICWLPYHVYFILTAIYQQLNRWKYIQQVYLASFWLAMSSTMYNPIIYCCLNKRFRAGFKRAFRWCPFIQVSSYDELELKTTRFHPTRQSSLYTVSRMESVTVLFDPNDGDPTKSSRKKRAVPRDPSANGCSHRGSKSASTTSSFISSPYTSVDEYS", "test": "Ability to displace the binding of [3H]-Senktide to Tachykinin receptor 3 in rat cerebral cortex membranes was determined.", "type": "cell membranes, Membrane"}, "Substance-P receptor [3]": {"target": "T1, Substance-P receptor", "test": "The binding affinity towards NK1 receptor in rat cerebral cortex membranes was determined by using 125 [I]-BHSP as radioligand", "type": "cell membranes, Membrane"}}, "data": [{"smiles": "COc1ccccc1CO[C@@H]1C2CCN(CC2)[C@@H]1C(c1ccccc1)c1ccccc1", "values": [{"measurement": "IC50", "setting": "Substance-P receptor [1]", "result": 0.15, "unit": "µM"}, {"measurement": "IC50", "setting": "Substance-P receptor [2]", "result": "~10", "unit": "µM"}, {"measurement": "IC50", "setting": "Substance-K receptor", "result": "≥ 100", "unit": "µM"}, {"measurement": "IC50", "setting": "Neuromedin-K receptor", "result": "≥ 100", "unit": "µM"}]}, {"smiles": "COc1ccccc1CN[C@@H]1C2CCN(CC2)[C@@H]1Cc1ccccc1", "values": [{"measurement": "IC50", "setting": "Substance-P receptor [1]", "result": 1.51, "unit": "µM"}, {"measurement": "IC50", "setting": "Substance-P receptor [2]", "result": "> 1", "unit": "µM"}, {"measurement": "IC50", "setting": "Substance-K receptor", "result": "≥ 100", "unit": "µM"}, {"measurement": "IC50", "setting": "Neuromedin-K receptor", "result": "≥ 100", "unit": "µM"}]}, {"smiles": "Cc1ccccc1CN[C@@H]1C2CCN(CC2)[C@@H]1C(c1ccccc1)c1ccccc1", "values": [{"measurement": "IC50", "setting": "Substance-P receptor [1]", "result": 0.227, "unit": "µM"}, {"measurement": "IC50", "setting": "Substance-P receptor [2]", "result": 0.7, "unit": "µM"}, {"measurement": "IC50", "setting": "Substance-K receptor", "result": "≥ 100", "unit": "µM"}, {"measurement": "IC50", "setting": "Neuromedin-K receptor", "result": "≥ 100", "unit": "µM"}]}, {"smiles": "CSCC[C@H](NC(=O)[C@H](CC(C)C)NC(=O)CNC(=O)[C@@H](NC(=O)[C@H](Cc1ccccc1)NC(=O)[C@H](CO)NC(=O)[C@H](CC(=O)O)NC(=O)[C@@H](NC(=O)[C@H](CCCCN)NC(=O)[C@@H](N)Cc1cnc[nH]1)[C@@H](C)O)C(C)C)C(N)=O", "note": "[NEUROKININ A]", "values": [{"measurement": "IC50", "setting": "Substance-P receptor [1]", "result": 0.0035, "unit": "µM"}]}, {"smiles": "c1ccc(CN[C@@H]2C3CCN(CC3)[C@@H]2C(c2ccccc2)c2ccccc2)cc1", "values": [{"measurement": "IC50", "setting": "Substance-P receptor [1]", "result": 0.052, "unit": "µM"}, {"measurement": "IC50", "setting": "Substance-P receptor [2]", "result": 2, "unit": "µM"}, {"measurement": "IC50", "setting": "Substance-K receptor", "result": "≥ 100", "unit": "µM"}, {"measurement": "IC50", "setting": "Neuromedin-K receptor", "result": "≥ 100", "unit": "µM"}]}, {"smiles": "O=C(N[C@@H]1C2CCN(CC2)[C@@H]1C(c1ccccc1)c1ccccc1)c1ccccc1Cl", "values": [{"measurement": "IC50", "setting": "Substance-P receptor [1]", "result": "> 10", "unit": "µM"}, {"measurement": "IC50", "setting": "Substance-P receptor [2]", "result": "> 10", "unit": "µM"}, {"measurement": "IC50", "setting": "Substance-K receptor", "result": "≥ 100", "unit": "µM"}, {"measurement": "IC50", "setting": "Neuromedin-K receptor", "result": "≥ 100", "unit": "µM"}]}, {"smiles": "N[C@@H]1C2CCN(CC2)[C@@H]1C(c1ccccc1)c1ccccc1", "values": [{"measurement": "IC50", "setting": "Substance-P receptor [1]", "result": "> 10", "unit": "µM"}, {"measurement": "IC50", "setting": "Substance-P receptor [2]", "result": "> 10", "unit": "µM"}, {"measurement": "IC50", "setting": "Substance-K receptor", "result": "≥ 100", "unit": "µM"}, {"measurement": "IC50", "setting": "Neuromedin-K receptor", "result": "≥ 100", "unit": "µM"}]}, {"smiles": "CSCC[C@H](NC(=O)[C@H](CC(C)C)NC(=O)CNC(=O)[C@@H](NC(=O)[C@H](Cc1ccccc1)NC(=O)[C@H](Cc1ccccc1)NC(=O)[C@H](CC(=O)O)NC(=O)[C@H](Cc1c[nH]cn1)NC(=O)[C@H](CCSC)NC(=O)[C@@H](N)CC(=O)O)C(C)C)C(N)=O", "note": "[NEUROKININ B]", "values": [{"measurement": "IC50", "setting": "Substance-P receptor [1]", "result": 0.013, "unit": "µM"}, {"measurement": "IC50", "setting": "Substance-P receptor [2]", "result": 0.069, "unit": "µM"}]}, {"smiles": "COc1ccccc1CN[C@H]1C2CCN(CC2)[C@@H]1C(c1ccccc1)c1ccccc1", "values": [{"measurement": "IC50", "setting": "Substance-K receptor", "result": "≥ 100", "unit": "µM"}, {"measurement": "IC50", "setting": "Neuromedin-K receptor", "result": "≥ 100", "unit": "µM"}]}, {"smiles": "COc1ccccc1CN[C@@H]1C2CCN(CC2)[C@@H]1C(c1ccccc1)c1ccccc1", "values": [{"measurement": "IC50", "setting": "Substance-K receptor", "result": "≥ 100", "unit": "µM"}, {"measurement": "IC50", "setting": "Neuromedin-K receptor", "result": "≥ 100", "unit": "µM"}]}, {"smiles": "Clc1ccccc1CN[C@@H]1C2CCN(CC2)[C@@H]1C(c1ccccc1)c1ccccc1", "values": [{"measurement": "IC50", "setting": "Substance-P receptor [1]", "result": 0.0085, "unit": "µM"}, {"measurement": "IC50", "setting": "Substance-P receptor [2]", "result": 0.11, "unit": "µM"}, {"measurement": "IC50", "setting": "Substance-K receptor", "result": "≥ 100", "unit": "µM"}, {"measurement": "IC50", "setting": "Neuromedin-K receptor", "result": "≥ 100", "unit": "µM"}]}, {"smiles": "Fc1ccccc1CN[C@@H]1C2CCN(CC2)[C@@H]1C(c1ccccc1)c1ccccc1", "values": [{"measurement": "IC50", "setting": "Substance-P receptor [1]", "result": 0.037, "unit": "µM"}, {"measurement": "IC50", "setting": "Substance-P receptor [2]", "result": 0.99, "unit": "µM"}, {"measurement": "IC50", "setting": "Substance-K receptor", "result": "≥ 100", "unit": "µM"}, {"measurement": "IC50", "setting": "Neuromedin-K receptor", "result": "≥ 100", "unit": "µM"}]}, {"smiles": "Clc1ccccc1CCCN[C@@H]1C2CCN(CC2)[C@@H]1C(c1ccccc1)c1ccccc1", "values": [{"measurement": "IC50", "setting": "Substance-P receptor [1]", "result": 1.1, "unit": "µM"}, {"measurement": "IC50", "setting": "Substance-P receptor [3]", "result": "> 10", "unit": "µM"}, {"measurement": "IC50", "setting": "Substance-K receptor", "result": "≥ 100", "unit": "µM"}, {"measurement": "IC50", "setting": "Neuromedin-K receptor", "result": "≥ 100", "unit": "µM"}]}, {"smiles": "FC(F)(F)c1ccccc1CN[C@@H]1C2CCN(CC2)[C@@H]1C(c1ccccc1)c1ccccc1", "values": [{"measurement": "IC50", "setting": "Substance-P receptor [1]", "result": 0.033, "unit": "µM"}, {"measurement": "IC50", "setting": "Substance-P receptor [2]", "result": 0.74, "unit": "µM"}, {"measurement": "IC50", "setting": "Substance-K receptor", "result": "≥ 100", "unit": "µM"}, {"measurement": "IC50", "setting": "Neuromedin-K receptor", "result": "≥ 100", "unit": "µM"}]}, {"smiles": "Clc1ccccc1CCN[C@@H]1C2CCN(CC2)[C@@H]1C(c1ccccc1)c1ccccc1", "values": [{"measurement": "IC50", "setting": "Substance-P receptor [1]", "result": 0.16, "unit": "µM"}, {"measurement": "IC50", "setting": "Substance-P receptor [2]", "result": 7.2, "unit": "µM"}, {"measurement": "IC50", "setting": "Substance-K receptor", "result": "≥ 100", "unit": "µM"}, {"measurement": "IC50", "setting": "Neuromedin-K receptor", "result": "≥ 100", "unit": "µM"}]}]}
